From PubChem BioAssay (NCI)
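Protocol summary: plate cells (96-well), add compound at 5 concentrations, incubate 48 h, interpolate endpoints linearly. TGI denotes the concentration required for complete inhibition of growth.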

Legend:
Assay in all cases: DTP human tumour cell line panel, 48 h
[1] = test system: HCT-15 colon
[2] = test system: M14 melanoma
[3] = test system: IGROV1 ovarian
[4] = test system: COLO 205 colon
[5] = test system: HS 578T breast
[6] = test system: SK-OV-3 ovarian
[7] = test system: K-562 leukemia
[8] = test system: LOX IMVI melanoma
[9] = test system: SNB-75 CNS
[10] = test system: HL-60(TB) leukemia
[11] = test system: OVCAR-3 ovarian

Row | SMILES | TGI [1] | TGI [2] | TGI [3] | TGI [4] | TGI [5] | TGI [6] | TGI [7] | TGI [8] | TGI [9] | TGI [10] | TGI [11]
1 | CCOC(=O)/C(C#N)=C\c1ccc(N(CCC(=O)O)CCC(=O)O)c(I)c1 | > 10 µM | > 10 µM | > 10 µM | > 10 µM | > 10 µM | > 10 µM | > 10 µM | > 10 µM | > 10 µM | > 10 µM | 
2 | CN(C)Nc1cc(=O)[nH]c(=O)[nH]1 | > 100 µM | > 100 µM | > 100 µM | > 100 µM |  |  | > 100 µM | > 100 µM |  | > 100 µM | > 100 µM
3 | COc1ccc2c3c1O[C@]1(C)C34CCN(C)C(C2)C42C=C[C@@]1(OC)c1c(O)ccc(O)c12 |  |  | > 100 µM | > 100 µM |  | > 100 µM | > 100 µM | > 100 µM | > 100 µM | > 100 µM | > 100 µM
4 | O=c1c2c(oc3ccccc13)-c1ccccc1OC2 | > 100 µM | > 100 µM | > 100 µM |  |  | 53.2 µM | > 100 µM | > 100 µM | 50.7 µM |  | > 100 µM
5 | COC(=O)C(=O)C(C(=O)C(=O)Nc1ccc(F)cc1)c1nc2ccc([N+](=O)[O-])cc2[nH]c1=O (stereo not drawn) | > 100 µM | > 100 µM | > 100 µM | > 100 µM |  | > 100 µM | > 100 µM | > 100 µM | > 100 µM | > 100 µM | > 100 µM
6 | O=C(CSc1nnc(-c2ccc(N=Cc3ccc(Cl)cc3)cc2)o1)Nc1ccccc1[N+](=O)[O-] | > 100 µM | > 100 µM |  | > 100 µM |  | > 100 µM | > 100 µM | > 100 µM | > 100 µM | > 100 µM | 
7 | C/C(=N\NS(=O)(=O)c1ccc(C)cc1)C(CN1CCCCC1)C(c1ccccc1)c1c(O)c2ccccc2oc1=O (stereo not drawn) | > 100 µM | > 100 µM | > 100 µM | > 100 µM |  | > 100 µM | > 100 µM | > 100 µM | > 100 µM | > 100 µM | > 100 µM
8 | COc1ccc2[nH]cc(CCNC(=O)[C@H](Cc3ccccc3)NC(=O)[C@@H](NCC(F)(F)F)C(C)C)c2c1 | 42.2 µM | 34.1 µM | 51.3 µM | 32.3 µM | 39.6 µM | 33.3 µM | > 100 µM | 37.6 µM |  | 46.2 µM | 31.1 µM
9 | O=C(O)c1nc2cc(C(F)(F)F)ccc2nc1Nc1ccc(F)cc1 |  | 82.4 µM | 55.9 µM | 37.1 µM | 74.3 µM | > 100 µM | > 100 µM | 48.5 µM | 49.5 µM |  | 49.8 µM
10 | O=[N+]([O-])/C(C(Cl)=C(Cl)Cl)=C(\N1CCOCC1)n1nnc2ccccc21 | 29.6 µM | 33.4 µM |  | 34.7 µM |  | 79.2 µM |  |  | 42.4 µM |  | 42.2 µM
11 | O=C1c2cc(Cl)ccc2-n2cnnc2C2CSCN12 (stereo not drawn) | > 100 µM | > 100 µM | > 100 µM | > 100 µM | > 100 µM | > 100 µM | > 100 µM | > 100 µM | > 100 µM |  | > 100 µM
12 | O=C(Nc1ccc(Cl)cc1)NS(=O)(=O)c1coc2cc(F)ccc2c1=O | > 100 µM | > 100 µM | > 100 µM | > 100 µM | > 100 µM | > 100 µM | > 100 µM | > 100 µM | > 100 µM |  | > 100 µM
13 | C1=NCCN2CCN(CCN=Cc3ccc(cc3)OCc3cccc(n3)COc3ccc1cc3)CC2 | > 50 µM | > 50 µM | > 50 µM | > 50 µM | > 50 µM | > 50 µM | > 50 µM |  | > 50 µM | > 50 µM | > 50 µM
14 | C=CCNC(=O)NC(=O)CSC1=NNC2(C(=O)N1)c1ccccc1-c1ccccc12 | > 10 µM | > 10 µM | > 10 µM | > 10 µM | > 10 µM | > 10 µM | > 10 µM | > 10 µM | > 10 µM | > 10 µM | 
15 | Cc1cc2c(cc1-c1cc3c(cc1C)C(C(C)C)=C(O)C(=O)/C3=C\Nc1c3ccccc3nc3ccccc13)/C(=C/Nc1c3ccccc3nc3ccccc13)C(=O)C(O)=C2C(C)C | 14.9 µM | 12.6 µM | 11.1 µM | 6.72 µM | 21 µM | 15.9 µM |  |  | 13 µM | 11.2 µM | 14.5 µM
16 | Clc1ccc(NCc2nnc(CCCCCCCCc3nnc(CNc4ccc(Cl)cc4)o3)o2)cc1 | > 100 µM | > 100 µM |  | > 100 µM | > 100 µM | > 100 µM | > 100 µM | > 100 µM | > 100 µM |  | > 100 µM
17 | Cn1c(=O)c(Br)c(C=O)n(CCO[N+](=O)[O-])c1=O | 20 µM | 15 µM |  | 26.9 µM | > 100 µM | 38.7 µM | 8.82 µM | 5.51 µM | 27 µM | 4.46 µM | 
18 | COc1cc(O)c2c(=O)cc(-c3ccc(O)cc3O)oc2c1CC=C(C)C | 25.5 µM | 30.2 µM | 39.6 µM | 26.7 µM | > 100 µM |  | > 100 µM | 28.3 µM | 46.1 µM | 34.4 µM | 
19 | NC1=C(NC(=O)Cc2ccc(F)cc2)C(=O)c2ccccc2C1=O | > 100 µM | > 100 µM | 59.4 µM | > 100 µM |  | 56.1 µM | > 100 µM | 31.4 µM | 52.5 µM | 98.6 µM | > 100 µM
20 | CC1=NN(C(=O)c2ccccc2O)C(=O)/C1=C/c1ccco1 | > 100 µM | > 100 µM | > 35.4 µM | > 63.8 µM |  | > 82 µM | > 100 µM | > 75.5 µM | 69.4 µM | > 26.8 µM | 6.11 µM
21 | NC(=O)N/N=C(\CC1OC(=O)c2ccccc21)c1ccco1 (stereo not drawn) | > 100 µM | > 100 µM | > 100 µM | > 100 µM |  | > 100 µM | > 100 µM | > 100 µM | > 100 µM | > 100 µM | > 100 µM
22 | [N-]=[N+]=Nc1ccccc1C(=O)N1C(=O)c2ccccc2C(=O)N(C(=O)c2ccccc2N=[N+]=[N-])c2ccccc21 | > 100 µM | > 100 µM | > 100 µM | > 100 µM | > 100 µM | > 100 µM | > 100 µM | > 100 µM | 64 µM |  | > 100 µM
